Results: patent EP1082127B1 (WARNER-LAMBERT COMPANY LLC, priority 1998, dated 1999)

Legend:
Ich-2 enzyme = target: T1, Ich-2 enzyme (Homo sapiens, UniProt P49662); assay: Ich-2 Colorimetric Dose-Response (IC50) Assay; assay type: biochemical; details: enzyme 64 nM, 60 µM Ac-Leu-Glu-Val-Asp-pNA; read-out: ICH2 IC50 (Caspase 4)
T1 sequence (P49662 81-270 limits assumed): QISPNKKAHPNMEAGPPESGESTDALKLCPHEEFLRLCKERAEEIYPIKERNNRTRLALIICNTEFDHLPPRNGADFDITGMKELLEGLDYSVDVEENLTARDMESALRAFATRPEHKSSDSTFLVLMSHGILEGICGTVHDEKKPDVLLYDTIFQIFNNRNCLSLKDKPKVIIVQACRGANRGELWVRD
T1 sequence (P49662 290-377 limits assumed): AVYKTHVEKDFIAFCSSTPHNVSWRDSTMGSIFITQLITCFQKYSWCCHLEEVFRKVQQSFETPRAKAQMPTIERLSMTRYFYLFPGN
Experimental: (§1) Diluted inhibitor stocks are prepared by two-fold serial dilution from a primary stock whose concentration is selected (based on screening results or on prior attempts at IC50 evaluation) to achieve approximately 95% inhibition in the most concentrated well. Aliquots of each dilution are transferred to a microtitre plate in triplicate.
(§2) ICE enzyme is diluted to approximately 24 nM in HGE buffer (100 mM Hepes pH 7.5, 0.5 mM EDTA, 20% glycerol, 0.1% Bovine Serum Albumin (BSA), and activated by adding dithiothreitol (DTT) to a final concentration of 5 mM. The activated enzyme is then aliquoted into wells containing inhibitor or vehicle, and the plate is preincubated for 60 minutes at ambient temperature. Substrate (Ac-Tyr-Val-Ala-Asp-pNA) is added to each well to a final concentration of 50 µM, and plates are placed in the microtitre plate-reader thermostated to 25°C. Beginning 5 minutes after addition of substrate, absorbance (405 nm) of wells is monitored for 1 hour, and activity is calculated as the mean rate of change in absorbance during this interval.
Inhibition of Ich-2 enzyme is assayed as described above for ICE, except that enzyme is used at 64 nM, and 60 µM of the Ich-2-specific substrate Ac-Leu-Glu-Val-Asp-pNA is used instead of the ICE substrate Ac-Tyr-Val-Ala-Asp-pNA.

ICE [1] = target: T2, ICE (Homo sapiens, UniProt P29466); assay: ICE Colorimetric Dose-Response (IC50) Assay; assay type: biochemical; details: 60 minutes preincubation, 50 µM Ac-Tyr-Val-Ala-Asp-pNA, 25°C
T2 sequence (P29466 120-297 limits assumed): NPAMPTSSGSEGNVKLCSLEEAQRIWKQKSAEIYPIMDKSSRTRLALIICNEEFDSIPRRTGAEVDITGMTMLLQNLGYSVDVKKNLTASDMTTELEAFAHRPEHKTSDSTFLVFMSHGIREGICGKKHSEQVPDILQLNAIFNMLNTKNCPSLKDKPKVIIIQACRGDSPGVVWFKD
T2 sequence (P29466 317-404 limits assumed): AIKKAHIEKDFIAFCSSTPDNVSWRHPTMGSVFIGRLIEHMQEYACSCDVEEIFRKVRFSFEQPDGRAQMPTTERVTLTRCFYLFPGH
Experimental: as §1, §2

[2] = tested on: IL-1β production in human peripheral blood mononuclear cells (PBMCs); assay: PBMC Cellular Assay - IC50 Determinations (LPS-stimulated IL-1β production, ELISA); assay type: cell-based; details: human PBMCs stimulated overnight with 10 ng/mL LPS, mature IL-1β by ELISA
Excerpt: Further evidence that compounds of Formula I are inhibitors of ICE is provided by their ability to inhibit IL-1β production in human peripheral blood mononuclear cells (PBMCs) as described herein. PBMCs are isolated from heparinized blood by centrifugation over a ficoll cushion, then washed three times with phosphate-buffered saline. PBMCs are suspended in a medium containing RPMI 1640 with glutamine, penicillin, streptomycin, and 2% human AB serum, then plated at 10^6 cells per well in 96-well flat bottom plates. PBMCs are stimulated overnight with 10 ng/mL of lipopolysaccharide (LPS, E. coli strain 0111:B4; Calbiochem) in the presence or absence of a compound of Formula I. Medium is harvested, and the level of mature IL-1β was determined using an ELISA kit from R&D Systems. Cells were cultured for an additional 4 hours in the presence of 3-(4,5-dimethylthiazol-2-yl)-2,5-diphenyltetrazolium bromide (MTT) to determine viability.

ICE [3] = target: T2, ICE; assay: ICE inhibition, Ki determination (fluorogenic substrate Ac-Tyr-Val-Ala-Asp-AMC); assay type: biochemical; details: 15 µM Ac-Tyr-Val-Ala-Asp-AMC, 0.5 nM enzyme, 30°C, reversible competitive model
Experimental: Serial dilutions of each compound of the invention are prepared using an initial 8-fold dilution of a DMSO stock into HGE (100 mM HEPES, 20% glycerol v/v, 0.5 mM EDTA), followed by seven serial 2-fold dilutions into HGE + 12.5% DMSO. Ten microliters of diluted stocks or of vehicle (HGE + 12.5% DMSO) are placed in triplicate onto a 96-well microtiter plate. Enzyme is diluted into assay buffer (HGE, 5 mM DTT, 15 µM Ac-Tyr-Val-Ala-Asp-AMC; 0.5 nM final enzyme concentration, pre-warmed to 30°C), and this reaction mixture is added to the plate at 90 µL/well. Substrate hydrolysis is monitored for 300 seconds at 30°C using 385 and 460 nm excitation and emission filters, respectively. Triplicate curves are averaged, and slopes are evaluated by linear regression. To evaluate Ki, plots of percent inhibition vs inhibitor concentration are fit by non-linear regression to a reversible, competitive model: [formula] where the competition factor is (1 + [S]/KM) = 2.

SMILES	IC50 (Ich-2 enzyme)	IC50 (ICE [1])	Ki (ICE [3])	IC50 [2]
CC(C)C(CC(=O)N(C)CCn1cnc2ccccc21)C(=O)NC(C=O)CC(=O)O (stereo not drawn) [Example 57, 3-(2-{[(2-Benzoimidazol-1-yl-ethyl)-methyl-carbamoyl]-methyl}-3-methyl-butyrylamino)-4-oxo-butyric acid]	38000 nM	227 nM	22.9 nM	3750 nM
CC(C)C(CC(=O)NO)C(=O)NC(CC(=O)O)C(=O)CNS(=O)(=O)CC12CCC(CC1=O)C2(C)C (stereo not drawn) [Example 15, 5-(7,7-Dimethyl-2-oxo-bicyclo[2.2.1]hept-1-ylmethanesulfonylamino)-3-(2-hydroxycarbamoylmethyl-3-methyl-butyrylamino)-4-oxo-pentanoic acid]	13100 nM	2050 nM	441 nM	17500 nM
CC(C)C(CC(=O)N(C)CCc1ccccc1)C(=O)NC(CC(=O)O)C(=O)CNS(=O)(=O)CC12CCC(CC1=O)C2(C)C (stereo not drawn) [Example 11, 5-(7,7-Dimethyl-2-oxo-bicyclo[2.2.1]hept-1-ylmethanesulfonylamino)-3-{3-methyl-2-[(methyl-phenethyl-carbamoyl)-methyl]-butyrylamino}-4-oxopentanoic acid]	15700 nM	440 nM	58 nM	5500 nM
CCOC1OC(=O)CC1NC(=O)C(CC(=O)NCCc1cn(C)c2ccccc12)C(C)C (stereo not drawn) [Example 37, N^1-(2-Ethoxy-5-oxo-tetrahydro-furan-3-yl)-2-isopropyl-N^4-[2-(1-methyl-1H-indol-3-yl)-ethyl]-succinamide]	128000 nM	581 nM	29.7 nM	2000 nM
CC(C)C(CC(=O)NCCc1ccccc1)C(=O)NC(CC(=O)O)C(=O)CSCCCc1ccccc1 (stereo not drawn) [Example 10, 3-[3-Methyl-2-(phenethylcarbamoyl-methyl)-butyrylamino]-4-oxo-5-(3-phenyl-propylsulfanyl)-pentanoic acid]	25700 nM	3270 nM	539 nM	21500 nM
CC(C)C(CC(=O)NCCc1c[nH]c2cc(F)ccc12)C(=O)NC(CC(=O)O)C(=O)CNS(=O)(=O)CC12CCC(CC1=O)C2(C)C (stereo not drawn) [Example 20, 5-(7,7-Dimethyl-2-oxo-bicyclo[2.2.1]hept-1-ylmethanesulfonylamino)-3-(2-{[2-(6-fluoro-1H-indol-3-yl)-ethylcarbamoyl]-methyl}-3-methyl-butyrylamino)-4-oxo-pentanoic acid]	62000 nM	11 nM	1.5 nM	2450 nM

Stronger by IC50 (Ich-2 enzyme), values ahead:

IC50 (Ich-2 enzyme)	IC50 (ICE [1])	Ki (ICE [3])	SMILES	IC50 [2]
4790 nM	113 nM	24.5 nM	CC(C)C(CC(=O)NCCCc1cccnc1)C(=O)NC(CC(=O)O)C(=O)CNS(=O)(=O)CC12CCC(CC1=O)C2(C)C (stereo not drawn) [Example 29, 5-(7,7-Dimethyl-2-oxo-bicyclo[2.2.1]hept-1-ylmethanesulfonylamino)-3-{3-methyl-2-[(3-pyridin-3-yl-propylcarbamoyl)-methyl]-butyrylamino}-4-oxo-pentanoic acid]	1900 nM
4220 nM	53 nM	23.4 nM	CC(C)C(CC(=O)NCCOc1ccccc1)C(=O)NC(CC(=O)O)C(=O)CNS(=O)(=O)CC12CCC(CC1=O)C2(C)C (stereo not drawn) [Example 9, 5-(7,7-Dimethyl-2-oxo-bicyclo[2.2.1]hept-1-ylmethanesulfonylamino)-3-{3-methyl-2-[(2-phenoxy-ethylcarbamoyl)-methyl]-butyrylamino}-4-oxo-pentanoic acid]	2100 nM
9020 nM	3550 nM	336 nM	CC(C)C(CC(=O)NCCc1ccccc1)C(=O)NC(CC(=O)O)C(=O)CNS(=O)(=O)CCc1ccccc1 (stereo not drawn) [Example 5, 3-[3-Methyl-2-(phenethylcarbamoyl-methyl)-butyrylamino]-4-oxo-5-(2-phenyl-ethanesulfonylamino)-pentanoic acid]	35000 nM
9720 nM	16800 nM	2180 nM	CC(C)C(CC(N)=O)C(=O)NC(CC(=O)O)C(=O)CNS(=O)(=O)CCc1ccccc1 (stereo not drawn) [Example 4, 3-(2-Carbamoylmethyl-3-methyl-butyrylamino)-4-oxo-5-(2-phenyl-ethanesulfonyl-amino)-pentanoic acid]	65000 nM
8660 nM	360 nM	20.7 nM	CC(C)C(CC(=O)NCCCc1ccccc1)C(=O)NC(CC(=O)O)C(=O)CNS(=O)(=O)CC12CCC(CC1)C2(C)C (stereo not drawn) [Example 24, 5-(7,7-Dimethyl-bicyclo[2.2.1]hept-1-ylmethanesulfonylamino)-3-{3-methyl-2-[(3-phenyl-propylcarbamoyl)-methyl]-butyrylamino}-4-oxo-pentanoic acid]	1600 nM
10400 nM	56.6 nM	33.2 nM	CC(C)C(CC(=O)NCCn1ncc2ccccc21)C(=O)NC(C=O)CC(=O)O (stereo not drawn) [Example 59, 3-{2-[(2-Indazol-1-yl-ethylcarbamoyl)-methyl]-3-methyl-butyrylamino}-4-oxo-butyric acid]	3750 nM
1470 nM	5.1 nM	2.5 nM	CC(C)C(CC(=O)NCCc1c[nH]c2ccccc12)C(=O)NC(CC(=O)O)C(=O)CNS(=O)(=O)CC12CCC(CC1=O)C2(C)C (stereo not drawn) [Example 16, 5-(7,7-Dimethyl-2-oxo-bicyclo[2.2.1]hept-1-ylmethanesulfonylamino)-3-(2-{[2-(1H-indol-3-yl)-ethylcarbamoyl]-methyl}-3-methyl-butyrylamino)-4-oxo-pentanoic acid]	350 nM
3140 nM	5.2 nM	1.1 nM	CC(C)C(CC(=O)NCCn1cnc2ccccc21)C(=O)NC(CC(=O)O)C(=O)CNS(=O)(=O)CC12CCC(CC1=O)C2(C)C (stereo not drawn) [Example 30, 3-{2-[(2-Benzoimidazol-1-yl-ethylcarbamoyl)-methyl]-3-methyl-butyrylamino}-5-(7,7-dimethyl-2-oxo-bicyclo[2.2.1]hept-1-ylmethanesulfonylamino)-4-oxo-pentanoic acid]	410 nM
5580 nM	254 nM	6.1 nM	CC(C)C(CC(=O)NCCCc1cccc2ccccc12)C(=O)NC(CC(=O)O)C(=O)CNS(=O)(=O)CC12CCC(CC1=O)C2(C)C (stereo not drawn) [Example 28, 5-(7,7-Dimethyl-2-oxo-bicyclo[2.2.1]hept-1-ylmethanesulfonylamino)-3-{3-methyl-2-[(3-naphthalen-1-yl-propylcarbamoyl)-methyl]-butyrylamino}-4-oxo-pentanoic acid]	550 nM
